In assay [1] the target is T1, Human GPR40 (Homo sapiens, UniProt O14842). Description: Inositol Phosphate Turnover (IP1) Assay. In kind it is cell-based. More on the design: expressed in transfected cells; host or cells: HEK cells (stably expressing the aequorin reporter). To be noted: HEK cells stably expressing human GPR40, CisBio IP-One kit. In outline: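 HEK cells stably expressing human GPR40, plated 15,000 per well and incubated 16 h, then exposed to compound for 60 min at 37 degrees in stimulation buffer. IP1 measured by HTRF (IP-One) as 665/620 nm ratio, converted to IP1 concentration via a standard curve.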

Assay [2] deals with T1, Human GPR40. Description: FLIPR assay, agonist-induced calcium mobilization. More on the design: expressed in transfected cells. Conditions: GPR40/CHO NFAT BLA cells. In kind it is cell-based. In a few lines:
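CHO NFAT-BLA cells stably expressing human GPR40 were loaded 100 min at room temperature with buffer (HMS, 0.1% BSA, 20 mM HEPES, 2.5 mM probenecid, pH 7.4) containing 8 μM fluo-4 AM. The agonist-induced calcium rise after compound addition was read as FLIPR fluorescence.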

T1 sequence (O14842 whole entry): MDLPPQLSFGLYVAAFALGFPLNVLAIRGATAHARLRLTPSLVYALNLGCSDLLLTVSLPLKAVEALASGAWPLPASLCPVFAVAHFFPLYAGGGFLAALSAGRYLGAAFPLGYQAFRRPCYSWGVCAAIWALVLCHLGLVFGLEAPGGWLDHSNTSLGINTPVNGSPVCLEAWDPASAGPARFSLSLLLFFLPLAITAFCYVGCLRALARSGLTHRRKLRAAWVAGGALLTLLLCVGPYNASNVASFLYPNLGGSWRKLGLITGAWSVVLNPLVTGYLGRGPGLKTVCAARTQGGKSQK

As to `O=C(O)[C@H]1[C@@H]2Cc3cc(OCc4cc5c(cc4F)CCCC5c4ccccc4C(F)(F)F)ncc3[C@@H]21` (stereo partly drawn) [Example 44, (5aR,6S,6aS)-3-((3-fluoro-8-(2-(trifluoro-methyl)phenyl)-5,6,7,8-tetrahydronaphthalen-2-yl)methoxy)-5,5a,6,6a-tetrahydrocyclopropa[4,5] cyclopenta[1,2-c]pyridine-6-carboxylic acid], the EC50 worked out at 68 nM on Human GPR40 [1] and 21 nM on Human GPR40 [2].
The corresponding values for `CC1CCc2ccc(COc3cc4c(cn3)[C@H]3[C@@H](C4)[C@@H]3C(=O)O)cc2C1c1ccccc1C(F)(F)F` (stereo partly drawn) [Example 46, (5aR,6S,6aS)-3-((7-methyl-8-(2-(trifluoromethyl)phenyl)-5,6,7,8-tetrahydronaphthalen-2-yl)methoxy)-5,5a,6,6a-tetrahydrocyclopropa[4,5]cyclopenta[1,2-c]pyridine-6-carboxylic acid] are 79.6 nM and 8.74 nM.
The corresponding values for `CC1=C(c2ccccc2C(F)(F)F)c2cc(COc3cc4c(cn3)[C@H]3[C@@H](C4)[C@@H]3C(=O)O)ccc2CC1` [Example 47, (5aR,6S,6aS)-3-((7-methyl-8-(2-(trifluoromethyl)-phenyl)-5,6-dihydro-naphthalen-2-yl)methoxy)-5,5a,6,6a-tetrahydrocyclo-propa[4,5]cyclopenta[1,2-c]pyridine-6-carboxylic acid] are 236 nM and 11.4 nM.
The corresponding values for `O=C(O)[C@H]1[C@@H]2Cc3cc(OCc4ccc5c(c4)C(c4ccccc4C(F)(F)F)CCO5)ncc3[C@@H]21` (stereo partly drawn) [Example 48, (5aR,6S,6aS)-3-((4-(2-(trifluoromethyl)phenyl)chroman-6-yl)methoxy)-5,5a,6,6a-tetrahydrocyclopropa[4,5]cyclopenta[1,2-c]pyridine-6-carboxylic acid] are 36.2 nM and 77.8 nM.
As for `O=C(O)[C@H]1[C@@H]2Cc3cc(OCc4ccc5c(c4)C(c4ccccc4C(F)(F)F)OCC5)ncc3[C@@H]21` (stereo partly drawn) [Example 50, (5aR,6S,6aS)-3-((1-(2-(trifluoromethyl)phenyl)isochroman-7-yl)methoxy)-5,5a,6,6a-tetrahydrocyclopropa[4,5]cyclopenta[1,2-c]pyridine-6-carboxylic acid], the EC50 at Human GPR40 [1] is 15 nM; on Human GPR40 [2], 43.2 nM.
For the molecule `CC1(C)CCN(c2ccccc2C(F)(F)F)c2cc(COc3cc4c(cn3)[C@H]3[C@@H](C4)[C@@H]3C(=O)O)c(F)cc21` [Example 53, (5aR,6S,6aS)-3-((6-fluoro-4,4-dimethyl-1-(2-(trifluoromethyl)phenyl)-1,2,3,4-tetrahydroquinolin-7-yl)methoxy)-5,5a,6,6a-tetrahydrocyclopropa[4,5]cyclopenta[1,2-c]pyridine-6-carboxylic acid], the results for the EC50 on Human GPR40 [1] and on Human GPR40 [2] were 39.2 nM and 8.38 nM, respectively.
The corresponding values for `CC1(C)CC(=O)N(c2ccccc2C(F)(F)F)c2cc(COc3cc4c(cn3)[C@H]3[C@@H](C4)[C@@H]3C(=O)O)c(F)cc21` [Example 54, (5aR,6S,6aS)-3-((6-fluoro-4,4-dimethyl-2-oxo-1-(2-(trifluoromethyl)phenyl)-1,2,3,4-tetrahydroquinolin-7-yl)methoxy)-5,5a,6,6a-tetrahydrocyclopropa[4,5] cyclopenta[1,2-c]pyridine-6-carboxylic acid] are 562 nM and 44.9 nM.
As for `CC1(C)CCC(c2ccccc2C(F)(F)F)c2cc(COc3cc4c(cn3)[C@H]3[C@@H](C4)[C@@H]3C(=O)O)c(F)cc21` (stereo partly drawn) [Example 55, (5aR,6S,6aS)-3-((3-fluoro-5,5-dimethyl-8-(2-(trifluoromethyl)phenyl)-5,6,7,8-tetrahydronaphthalen-2-yl)methoxy)-5,5a,6,6a-tetrahydrocyclopropa[4,5]cyclopenta[1,2-c]pyridine-6-carboxylic acid], the EC50 at Human GPR40 [1] was 70.2 nM; on Human GPR40 [2], 63.7 nM.
Consider `O=C(O)[C@H]1[C@@H]2Cc3cc(OCc4ccc5c(c4)N(c4ccccc4)CCO5)ncc3[C@@H]21` [Example 61, (5aR,6S,6aS)-3-((4-phenyl-3,4-dihydro-2H-benzo[b][1,4]oxazin-6-yl)methoxy)-5,5a,6,6a-tetrahydrocyclopropa[4,5]cyclopenta[1,2-c]pyridine-6-carboxylic acid], for which the values for the EC50 at Human GPR40 [1] and on Human GPR40 [2] were 653 nM and 40.5 nM, respectively.
As to `O=C(O)[C@H]1[C@@H]2Cc3cc(OCc4ccc5c(c4)N(c4ccccc4)CCCC5)ncc3[C@@H]21` [Example 62, (5aR,6S,6aS)-3-((1-phenyl-2,3,4,5-tetrahydro-1H-benzo[b]azepin-8-yl)methoxy)-5,5a,6,6a-tetrahydrocyclopropa[4,5]cyclopenta[1,2-c]pyridine-6-carboxylic acid], the figures for the EC50 at Human GPR40 [1] and on Human GPR40 [2] were 42.9 nM and 14.6 nM, respectively.
The corresponding values for `O=C(O)[C@H]1[C@@H]2Cc3cc(OCc4ccc5c(c4)N(c4ccccc4)CCC5)ccc3[C@@H]21` [Example 66, (1S,1aS,6aR)-4-((1-phenyl-1,2,3,4-tetrahydroquinolin-7-yl)methoxy)-1,1a,6,6a-tetrahydrocyclopropa[a]indene-1-carboxylic acid] are 72.6 nM and 9.77 nM.
The corresponding values for `O=C(O)[C@H]1[C@@H]2Cc3cc(OCc4ccc5c(c4)N(c4ccccn4)CCC5)ccc3[C@@H]21` [Example 67, (1S,1aS,6aR)-4-((1-(pyridin-2-yl)-1,2,3,4-tetrahydroquinolin-7-yl)methoxy)-1,1a,6,6a-tetrahydrocyclopropa[a] indene-1-carboxylic acid] are 169 nM and 28.9 nM.
Turning to `Cc1ccccc1N1CCCc2ccc(COc3ccc4c(c3)C[C@H]3[C@H](C(=O)O)[C@@H]43)cc21` [Example 68, (1S,1aS,6aR)-4-((1-(o-tolyl)-1,2,3,4-tetrahydroquinolin-7-yl)methoxy)-1,1a,6,6a-tetrahydrocyclopropa[a] indene-1-carboxylic acid], the results for the EC50 at Human GPR40 [1] and on Human GPR40 [2] were 64.9 nM and 24.7 nM, respectively.
Consider `Cn1cnc2c([C@H]3CC(C)(C)c4ccc(COc5cc6c(cn5)[C@H]5[C@@H](C6)[C@@H]5C(=O)O)cc43)cccc21` [Example 71], for which the results for the EC50 on Human GPR40 [1] and on Human GPR40 [2] were 205 nM and 13.3 nM, respectively.
Take `CN1CC(C)(C)c2cc(F)c(COc3cc4c(cn3)[C@H]3[C@@H](C4)[C@@H]3C(=O)O)cc2[C@H]1c1ccccc1C(F)(F)F` [Example 73, (5aR,6S,6aS)-3-(((S)-6-fluoro-2,4,4-trimethyl-1-(2-(trifluoromethyl)phenyl)-1,2,3,4-tetrahydroisoquinolin-7-yl)methoxy)-5,5a,6,6a-tetrahydrocyclopropa[4,5]cyclopenta[1,2-c]pyridine-6-carboxylic acid]: the EC50 is 21.1 nM at Human GPR40 [1] and 18.6 nM on Human GPR40 [2].
`CC1(C)CNC(c2ccccc2C(F)(F)F)c2c1ccc(COc1cc3c(cn1)[C@H]1[C@@H](C3)[C@@H]1C(=O)O)c2F` (stereo partly drawn) [Example 74, (5aR,6S,6aS)-3-((8-fluoro-4,4-dimethyl-1-(2-(trifluoromethyl)phenyl)-1,2,3,4-tetrahydroisoquinolin-7-yl)methoxy)-5,5a,6,6a-tetrahydrocyclopropa[4,5]cyclopenta[1,2-c]pyridine-6-carboxylic acid]: the EC50 at Human GPR40 [1] was found to be 4.99 nM; at Human GPR40 [2], 6.75 nM.

These data come from patent US10000454B2, “Antidiabetic tricyclic compounds” (Merck Sharp & Dohme Corp., priority 2014, dated 2018).
